Experimental data reported in patent publication US6495571B1, “Pyridine compounds, use and preparation thereof” (Southern Research Institute, priority 1999, dated 2002).
Where two headings read alike, the source gives them in different places.

Experiments:
cancer = assay: Anti-cancer activity (test not specified)
P388/0 murine leukemia = conditions: Q1D × 1 (1)
[1] = system: P388/BCNU (carmustine-resistant) leukemia; assay: Antitumor activity against IP-implanted P388/BCNU leukemia; conditions: Q1D × 1 (1)
[2] = system: P388/CPA (cyclophosphamide-resistant) leukemia; format: in vivo, CD2F1 female mice; conditions: Q1D × 1 (1)
[3] = system: human MX-1 mammary tumor (ic, 10^6 cells); assay: In vivo antitumor activity, i.c.-implanted MX-1 xenograft; conditions: Days 1-5
[4] = system: human MX-1 mammary tumor (sc, 30-40 mg fragments); assay: In vivo antitumor activity, s.c.-implanted MX-1 xenograft; parameters: species or system Athymic mice (Ncr-nu); conditions: for antitumor activity (in words): MX-1 implanted s.c. or i.c.
[5] = oral (gavage) 135 mg/kg/dose, Days 13-17
[6] = oral (gavage) 135 mg/kg/dose, Days 12-16

Structure (SMILES): CCOc1nc(C(Cl)(Cl)Cl)c(Cl)c(OCC)c1Cl [3,5-dichloro-4,6-diethoxy-2-(trichloromethyl)pyridine]
- anti-cancer activity (in words) (cancer): active anti-cancer activity

Structure (SMILES): CCOc1c(Cl)c(OC)nc(C(Cl)(Cl)Cl)c1Cl [3,5-dichloro-4-ethoxy-6-methoxy-2-(trichloromethyl)pyridine]
- anti-cancer activity (in words) (cancer): active anti-cancer activity

Structure (SMILES): O=NN(CCCl)C(=O)NCCCl [BCNU (carmustine), carmustine]
- 50-DAY SURV./TOTAL (P388/0 murine leukemia; IP 20.0 mg/kg/dose): 3/6
- 50-DAY SURV./TOTAL (P388/0 murine leukemia; IP 30.0 mg/kg/dose): 6/6
- 50-DAY SURV./TOTAL ([1]; IP 20.0 mg/kg/dose): 0/6
- % ILS ([1]; IP 20.0 mg/kg/dose): 0%
- 50-DAY SURV./TOTAL ([1]; IP 30.0 mg/kg/dose): 0/6
- % ILS ([1]; IP 30.0 mg/kg/dose): −6%
- MEDIAN DAY OF DEATH ([1]; IP 30.0 mg/kg/dose): 8.5

Structure (SMILES): O=P1(N(CCCl)CCCl)NCCCO1 (stereo not shown) [CPA (cycloposphamide), cyclophosphamide]
- 50-DAY SURV./TOTAL ([2]; IP 175.0 mg/kg/dose): 0/6
- % ILS ([2]; IP 175.0 mg/kg/dose): +9%
- APPROX. NET LOG10 CHANGE IN TUMOR BURDEN AT END OF Rx ([2]; IP 175.0 mg/kg/dose): −0.6
- 50-DAY SURV./TOTAL ([2]; IP 265.0 mg/kg/dose): 0/6
- % ILS ([2]; IP 265.0 mg/kg/dose): +27%
- APPROX. NET LOG10 CHANGE IN TUMOR BURDEN AT END OF Rx ([2]; IP 265.0 mg/kg/dose): −1.7
- 50-DAY SURV./TOTAL (P388/0 murine leukemia; IP 175.0 mg/kg/dose): 1/6
- % ILS (P388/0 murine leukemia; IP 175.0 mg/kg/dose): +172%
- APPROX. NET LOG10 CHANGE IN TUMOR BURDEN AT END OF Rx (P388/0 murine leukemia; IP 175.0 mg/kg/dose): ca −6.8
- 50-DAY SURV./TOTAL (P388/0 murine leukemia; IP 265.0 mg/kg/dose): 6/6

Structure (SMILES): COc1nc(C(Cl)(Cl)Cl)c(Cl)c(OC(=O)COC(C)=O)c1Cl [DM-AA-PEN]
- Median % ILS (dying mice only) ([3]; IP 135 mg/kg/dose): +67%
- Tumor-Free-Surv/Total ([3]; IP 135 mg/kg/dose): 0/5
- Median % ILS (dying mice only) ([3]; oral (gavage) 135 mg/kg/dose): +115%
- Tumor-Free-Surv/Total ([3]; oral (gavage) 135 mg/kg/dose): 2/5

Structure (SMILES): C=CC(=O)Oc1c(Cl)c(OC)nc(C(Cl)(Cl)Cl)c1Cl [DM-AC-PEN]
- T-C ([4]; IP 60 mg/kg/dose, Days 12-16): 30.0 days
- Tumor-Free-Surv/Total ([4]; IP 60 mg/kg/dose, Days 12-16): 1/5
- Median % ILS (dying mice only) ([3]; IP 60 mg/kg/dose): +55%
- Tumor-Free-Surv/Total ([3]; IP 60 mg/kg/dose): 0/5

Structure (SMILES): COc1nc(C(Cl)(Cl)Cl)c(Cl)c(OC(=O)c2ccccc2)c1Cl [DM-B-PEN]
- T-C ([4]; IP 135 mg/kg/dose, Days 11-15): >42.7 days
- Tumor-Free-Surv/Total ([4]; IP 135 mg/kg/dose, Days 11-15): 5/5
- antitumor activity (in words) ([4]; i.p. administration): high activity
- antitumor activity (in words) ([4]; oral drug treatment): low antitumor activity
- oral absorption (in words) ([4]; inferred from MX-1 results (s.c. or i.c.), oral treatment): oral absorption was poor
- T-C [4, 5]: -1.4 days
- Tumor-Free-Surv/Total [4, 5]: 0/5
- Median % ILS (dying mice only) ([3]; IP 335 mg/kg/dose): +84%
- Tumor-Free-Surv/Total ([3]; IP 335 mg/kg/dose): 0/5
- Median % ILS (dying mice only) ([3]; oral (gavage) 135 mg/kg/dose): +12%
- Tumor-Free-Surv/Total ([3]; oral (gavage) 135 mg/kg/dose): 0/5

Structure (SMILES): COc1nc(C(Cl)(Cl)Cl)c(Cl)c(OC(=O)CBr)c1Cl [DM-BA-PEN]
- T-C ([4]; IP 135 mg/kg/dose, Days 12-16): >41.0 days
- Tumor-Free-Surv/Total ([4]; IP 135 mg/kg/dose, Days 12-16): 2/5

Structure (SMILES): COc1nc(C(Cl)(Cl)Cl)c(Cl)c(OC(=O)CCl)c1Cl [DM-CA-PEN]
- T-C ([4]; IP 60 mg/kg/dose, Days 12-16): >41.0 days
- Tumor-Free-Surv/Total ([4]; IP 60 mg/kg/dose, Days 12-16): 3/5
- T-C [4, 6]: >41.0 days
- Tumor-Free-Surv/Total [4, 6]: 5/5
- Median % ILS (dying mice only) ([3]; oral (gavage) 135 mg/kg/dose): +84%
- Tumor-Free-Surv/Total ([3]; oral (gavage) 135 mg/kg/dose): 2/5

Structure (SMILES): COc1nc(C(Cl)(Cl)Cl)c(Cl)c(OC(=O)c2ccc(CCl)cc2)c1Cl [DM-CMB-PEN]
- Median % ILS (dying mice only) ([3]; IP 90 mg/kg/dose): +73%
- Tumor-Free-Surv/Total ([3]; IP 90 mg/kg/dose): 0/5

Structure (SMILES): COC(=O)CCC(=O)Oc1c(Cl)c(OC)nc(C(Cl)(Cl)Cl)c1Cl [DM-CMP-PEN]
- T-C ([4]; IP 135 mg/kg/dose, Days 11-15): >42.7 days
- Tumor-Free-Surv/Total ([4]; IP 135 mg/kg/dose, Days 11-15): 3/5
- T-C [4, 5]: >38.5 days
- Tumor-Free-Surv/Total [4, 5]: 2/5
- Median % ILS (dying mice only) ([3]; IP 90 mg/kg/dose): +87%
- Tumor-Free-Surv/Total ([3]; IP 90 mg/kg/dose): 1/5
- Median % ILS (dying mice only) ([3]; oral (gavage) 90 mg/kg/dose): +76%
- Tumor-Free-Surv/Total ([3]; oral (gavage) 90 mg/kg/dose): 1/5

Structure (SMILES): COc1nc(C(Cl)(Cl)Cl)c(Cl)c(OC(=O)C(Cl)Cl)c1Cl [DM-DCA-PEN]
- T-C ([4]; IP 135 mg/kg/dose, Days 12-16): >38.6 days
- Tumor-Free-Surv/Total ([4]; IP 135 mg/kg/dose, Days 12-16): 2/5
